For the first assay, the target named is human α5β3γ2 receptors (α5-GABAA receptor) (Homo sapiens (Human), UniProt P18507+P31644). Nature of the assay: 3H-flunitrazepam competition binding, human α5β3γ2 GABAA receptor. Particulars: HEK293 cell membranes, 1 nM 3H-flunitrazepam; read-out: α5-GABAAR Ki. How it is done: The affinity of the compound to each subtype of GABAA receptor was determined by competing for the binding of ^3H-flunitrazepam to HEK293 cells stably expressing human α1β3γ2, α2β3γ2, α3β3γ2, and α5β3γ2 receptors.
The cells were suspended in 50 mM Tris-HCl buffer (pH=7.4), homogenized 10 times on ice with a homogenizer for 20 seconds, and centrifuged at 1000 g for 10 minutes at 4° C. The supernatant was collected, and the above steps were repeated. The supernatant was centrifuged at 4° C. (33800 g; Thermo, rotor: A27-8×50) for 60 minutes, and the precipitate was resuspended in Tris buffer (50 mM Tris-HCl, 10 mM MgCl2, 0.5 mM EDTA, 10% glycerol). Protein was measured (BCA method, Pierce), and 1 mL aliquots were prepared and stored at −80° C.
The radioligand competition binding assay was performed in a 200 μL system (96-well plate) containing 100 μL of cell membrane. The concentration of ^3H-flunitrazepam was 1 nM and the concentration of the test compound was in the range of […]. Flumazenil was used as a control. 1 μL of 2 mM flumazenil (final concentration […]) was added to the low signal control well (Low control, LC), and 1 μL of DMSO was added to the high signal control well (High control, HC). The final concentration of target membrane protein was […]. All test compound sample storage solutions were 10 mM. The working concentration of the samples was to dilute all the samples to 0.2 mM with DMSO, followed by 4-fold serial gradient dilutions for a total of 8 concentration gradients. The 96-well plate was sealed with a sealing film, and then incubated on a shaker at room temperature for 1 hour. At the same time, the GF/C filter plate was soaked in soaking buffer (0.3% PEI, stored at 4° C.) for at least 0.5 hours. After the binding incubation was completed, the cells were collected onto a GF/C filter plate using a cell harvester. The plate was washed four times with washing buffer (50 mM Tris-HCl, pH 7.4, stored at 4° C.). After drying in a 50° C. oven for 1 hour, the bottom of the dried GF/C filter plate was sealed. The residual radioactivity on the filter membrane was detected using liquid scintillation counting. 50 μL of scintillation fluid was added to each well, and the plate was sealed. The readings were taken using a Microbeta2. The inhibitory activity of the test sample on the binding of ^3H-flunitrazepam to GABAA receptor membrane proteins was calculated, and the IC50 of each test sample was calculated by dose-effect curve fitting (GraphPad Prism 5 software), and the Ki of the sample was calculated from the IC50, thus evaluating the binding ability of the sample to the various subtypes of GABAA receptors.
In general, Ki refers to the equilibrium dissociation constant of an inhibitor or competing ligand from its target. As for `COc1cc(OCc2c(C)nnn2-c2ccc(C(F)F)cc2)nnc1N1CCNC(=O)C1` [Example 135, 4-(6-((1-(4-(Difluoromethyl)phenyl)-4-methyl-1H-1,2,3-triazol-5-yl)methoxy)-4-methoxypyridazin-3-yl)piperazin-2-one], the Ki was 1.05 nM.

In the case of `Cc1nnn(-c2ccc(C(F)F)cc2)c1COc1ccc(N2CCN(C3CN(C(C)C)C3)C(=O)C2)nn1` [Example 142, 4-(6-((1-(4-(Difluoromethyl)phenyl)-4-methyl-1H-1,2,3-triazol-5-yl)methoxy)pyridazin-3-yl)-1-(1-isopropylazetidin-3-yl)piperazin-2-one], the Ki worked out at 1.8 nM.

Turning to `Cc1nnn(-c2ccc(C(F)F)cc2)c1COc1ccc(N2CC(C(=O)N3CCOC(C)(C)C3)C2)nn1` [Example 158, (1-(6-((1-(4-(Difluoromethyl)phenyl)-4-methyl-1H-1,2,3-triazol-5-yl)methoxy)pyridazin-3-yl)azetidin-3-yl)(2,2-dimethylmorpholino)methanone], the Ki was 4.31 nM.

With `Cc1nnn(-c2ccc(C(F)F)cc2)c1COc1ccc(N2CCN3CC(c4cccc(Cl)c4)NC(=O)[C@@H]3C2)nn1` (stereo partly drawn) [Example 205, (9aS)-3-(3-Chlorophenyl)-8-(6-((1-(4-(difluoromethyl)phenyl)-4-methyl-1H-1,2,3-triazol-5-yl)methoxy)pyridazin-3-yl)hexahydro-2H-pyrazino[1,2-a]pyrazin-1(6H)-one], the Ki stood at 2.1 nM.

In the case of `Cc1nnn(-c2ccc(C(F)F)cc2)c1COc1ccc(N2CCCC3(COC3)C2)nn1` [Example 85, 6-(6-((1-(4-(Difluoromethyl)phenyl)-4-methyl-1H-1,2,3-triazol-5-yl)methoxy)pyridazin-3-yl)-2-oxa-6-azaspiro[3.5]nonane], the Ki turned out to be 2.24 nM.

Take `CCNC(=O)C12CC(CN1c1ccc(OCc3c(C)nnn3-c3ccc(C(F)F)cc3)nn1)C2` [Example 115, 2-(6-((1-(4-(Difluoromethyl)phenyl)-4-methyl-1H-1,2,3-triazol-5-yl)methoxy)pyridazin-3-yl)-N-ethyl-2-azabicyclo[2.1.1]hexane-1-carboxamide]: the Ki came to 1.25 nM.

Take `O=C1CN(c2ccc(OCc3c(C(F)F)nnn3-c3ccc(C(F)F)cc3)nn2)CCN1` [Example 185, 4-(6-((4-(Difluoromethyl)-1-(4-(difluoromethyl)phenyl)-1H-1,2,3-triazol-5-yl)methoxy)pyridazin-3-yl)piperazin-2-one]: the Ki was determined as 0.96 nM.

Turning to `Cc1nnn(-c2ccc(C(F)F)cc2)c1COc1ccc(N2CCN[C@H](C(=O)N(C)C)C2)nn1` [Example 31, (S)-4-(6-((1-(4-(Difluoromethyl)phenyl)-4-methyl-1H-1,2,3-triazol-5-yl)methoxy)pyridazin-3-yl)-N,N-dimethylpiperazine-2-carboxamide], the Ki came to 7.45 nM.

In the case of `Cc1nnn(-c2ccc(C(F)F)cc2)c1COc1ccc(N2CC[C@@H]3CCNC(=O)[C@@H]3C2)nn1` (relative stereo) [Example 123, cis-7-(6-((1-(4-(Difluoromethyl)phenyl)-4-methyl-1H-1,2,3-triazol-5-yl)methoxy)pyridazin-3-yl)octahydro-2,7-naphthyridin-1(2H)-one], the Ki turned out to be 7.2 nM.

As for `Cc1nnn(-c2ccc(C(F)F)cc2)c1COc1ccc(C2CCNC(=O)C2)cn1` (stereo not shown) [Example 170, 4-(6-((1-(4-(Difluoromethyl)phenyl)-4-methyl-1H-1,2,3-triazol-5-yl)methoxy)pyridin-3-yl)piperidin-2-one], the Ki is 2.3 nM.

For `Cc1nnn(-c2ccc(C(F)F)cc2)c1COc1ccc(N2CCC(N(C)C)C2)nn1` (stereo not shown) [Example 12, 1-(6-((1-(4-(Difluoromethyl)phenyl)-4-methyl-1H-1,2,3-triazol-5-yl)methoxy)pyridazin-3-yl)-N,N-dimethylpyrrolidin-3-amine], the Ki was 0.89 nM.

For the molecule `Cc1nnn(-c2ccc(F)cc2)c1COc1ccc(N2CCN(CC(F)(F)F)C(=O)C2)nn1` [Example 94, 4-(6-((1-(4-Fluorophenyl)-4-methyl-1H-1,2,3-triazol-5-yl)methoxy)pyridazin-3-yl)-1-(2,2,2-trifluoroethyl)piperazin-2-one], the Ki worked out at 44.3 nM.

With `O=C1CN(c2ccc(OCc3c(C4CC4)nnn3-c3ccc(C(F)F)cc3)nn2)CCN1` [Example 83, 4-(6-((4-Cyclopropyl-1-(4-(difluoromethyl)phenyl)-1H-1,2,3-triazol-5-yl)methoxy)pyridazin-3-yl)piperazin-2-one], the Ki was found to be 2.6 nM.

With `Cc1nnn(-c2ccc(C(F)F)cc2)c1COc1ccc(N2CCN3CC(c4cnn(C)c4)NC(=O)[C@@H]3C2)nn1` (single isomer, unassigned) [Example 211], the Ki came out at 2.02 nM.

Regarding `O=C1CN(c2ccc(OCc3c(Cl)nnn3-c3ccc(C(F)F)cc3)nn2)C[C@@H]2COCCN12` [Example 182, (R)-8-(6-((4-Chloro-1-(4-(difluoromethyl)phenyl)-1H-1,2,3-triazol-5-yl)methoxy)pyridazin-3-yl)hexahydropyrazino[2,1-c][1,4]oxazin-6(1H)-one], the Ki came out at 0.71 nM.

For the molecule `Cc1nnn(-c2ccc(C(F)F)cc2)c1COc1ccc(N2CCCNC(=O)C2)nn1` [Example 4, 4-(6-((1-(4-(Difluoromethyl)phenyl)-4-methyl-1H-1,2,3-triazol-5-yl)methoxy)pyridazin-3-yl)-1,4-diazepan-2-one], the Ki amounted to 7.25 nM.

`O=C1CN(c2ccc(OCc3c(Cl)nnn3-c3ccc(Cl)cc3)nn2)CCN1` [Example 190, 4-(6-((4-Chloro-1-(4-chlorophenyl)-1H-1,2,3-triazol-5-yl)methoxy)pyridazin-3-yl)piperazin-2-one]: the Ki came out at 1.96 nM.

With `Cc1nnn(-c2ccc(C(F)F)cc2)c1COc1ccc(N2CCN3CCCNC(=O)[C@@H]3C2)nn1` [Example 120, (S)-2-(6-((1-(4-(Difluoromethyl)phenyl)-4-methyl-1H-1,2,3-triazol-5-yl)methoxy)pyridazin-3-yl)octahydropyrazino[1,2-a][1,4]diaza-10(2H)-one], the Ki worked out at 27.2 nM.

Take `CCNC(=O)[C@H]1CCN1c1ccc(OCc2c(C)nnn2-c2ccc(C(F)F)cc2)nn1` [Example 40]: the Ki was determined as 33.6 nM.

As for `Cc1nnn(-c2ccc(C(F)F)cc2)c1COc1ccc(N2CCNC(C)(C)C2=O)nn1` [Example 10, 1-(6-((1-(4-(Difluoromethyl)phenyl)-4-methyl-1H-1,2,3-triazol-5-yl)methoxy)pyridazin-3-yl)-3,3-dimethylpiperazin-2-one], the Ki came out at 14.4 nM.

As for `Cc1nnn(-c2ccc(C(F)F)cc2)c1COc1ccc(N2CC(C(=O)NC3CCOC3)C2)nn1` (stereo not shown) [Example 51, 1-(6-((1-(4-(Difluoromethyl)phenyl)-4-methyl-1H-1,2,3-triazol-5-yl)methoxy)pyridazin-3-yl)-N-(tetrahydrofuran-3-yl)azetidine-3-carboxamide], the Ki came out at 6.17 nM.

The assay is the same for the next values; noted with them: α5-GABAAR Ki, HEK293 cell membranes, 1 nM 3H-flunitrazepam.
For the molecule `CCNC(=O)C12CC(CN(c3ccc(OCc4c(C)nnn4-c4ccc(C(F)F)cc4)nn3)C1)C2` [Example 121, 3-(6-((1-(4-(Difluoromethyl)phenyl)-4-methyl-1H-1,2,3-triazol-5-yl)methoxy)pyridazin-3-yl)-N-ethyl-3-azabicyclo[3.1.1]heptane-1-carboxamide], the Ki is 1.73 nM.

The values above are taken from patent publication US20250136581A1, “SUBSTITUTED TRIAZOLE DERIVATIVE, PREPARATION METHOD THEREFOR, PHARMACEUTICAL COMPOSITION THEREOF, AND USE THEREOF” (SHANGHAI SIMR BIOTECHNOLOGY CO., LTD., priority 2021, published 2025).
